According to US6429326B1, “Benzylidenecamphor-substituted silanes/organosiloxanes for use in photostabilizing sunscreen compositions comprising dibenzoylmethane compounds” (Societe L'Oreal, priority 1998, dated 2002):

| melting point [°C] | Structure (SMILES) |
| --- | --- |
| 47 to 48 | CC12CCC(/C(=C\c3ccc(OCCC[Si](C)(O[Si](C)(C)C)O[Si](C)(C)C)cc3)C1=O)C2(C)C (stereo not drawn) |
| 79 to 80 | COc1cc(/C=C2/C(=O)C3(C)CCC2C3(C)C)ccc1OCCC[Si](C)(C)C (stereo not drawn) |
| 100 to 101 | CC12CCC(/C(=C\c3ccc(OCCC[Si](C)(C)C)cc3)C1=O)C2(C)C (stereo not drawn) |
